# Test results as given in patent US8551537B2, “Rhus verniciflua stokes extract having increased content of active flavonoid compound and method for preparing same” (AZI Company Ltd., priority 2010, dated 2013).
# Experiment: Anti-oxidative activity, electron-donating ability by DPPH method
# Assay type: biochemical
# Protocol: A measurement of anti-oxidative activity was performed by using a method of measuring an electron-donating ability with DPPH method. DPPH is an abbreviation for 1,1-diphenyl-2-picrylhydrazyl, and is widely used a marker for measuring anti-oxidative activity due to its radical. The testing processes were as follows: (1) 2 ml of 0.1 mM DPPH (Sigma, D-9132) dissolved in ethanol was treated to 2 ml of sample dissolved in ethanol; (2) it was mixed for 10 minutes, and then maintained at a dark place for 30 minutes; (3) an absorbance was measured at 520 nm; and (4) the degree of anti-oxidative ability (electron-donating ability, EDA) was calculated. Vitamin E (Fluka, 95420) was used as a positive control group and Formula was as follow.
# In the above formula, Cabs denotes an absorbance of a negative control group (in the case of treating only ethanol instead of sample) and Sabs denotes an absorbance of sample.
# [1] = Table 1, comparison experiment between fustin and fisetin
# [2] = Table 4, DPPH method, absorbance at 520 nm
"Anti-oxidative Activity (IC50, ug/ml) [1] [µg/mL]","Anti-oxidative Activity (IC50, ug/ml) [2] [µg/mL]",Compound,antioxidative activity of fisetin as compared with that of fustin (ratio versus fustin)
33,32,"O=C1c2ccc(O)cc2O[C@H](c2ccc(O)c(O)c2)[C@H]1O [Fustin, 2,3-Dihydrofisetin]",
8,7.8,"O=c1c(O)c(-c2ccc(O)c(O)c2)oc2cc(O)ccc12 [Fisetin, 2-(3,4-dihydroxyphenyl)-3,7-dihydroxy-4H-chromen-4-one-hydrate]",at least 5 times
